Values quoted from earlier work, collected in patent US5681738A, “Use of 10-oxo-trans-8-decenoic acid in mushroom cultivation” (The Penn State Research Foundation, priority 1992, dated 1997).

System: seed chamber of runner bean
Conditions: Zimmerman et al., (1979); cited from earlier work

O=C/C=C/CCCCCCCCC(=O)O [12-Oxo-trans-10-dodecenoic acid]
formation of an intumescence on seed chamber (in words): found to induce the formation of an intumescence
